Data as given in patent publication US20250019350A1, “SYNTHESIS OF THE PROSTATE SPECIFIC MEMBRANE ANTIGEN (PSMA) RADIOLABELED INHIBITOR [18F]DCFPYL” (Progenics Pharmaceuticals, Inc, priority 2023, published 2025).

Experiment: Radiolysis / stability of [18F]DCFPyL over time by HPLC with radiodetection (RCP, free 18F, radioactive impurities)
Format: physicochemical
Experimental: Those of ordinary skill in the art will be aware of techniques and systems for determining the radiochemical purity of a composition. In some cases, the radiochemical purity is determined using an HPLC associated with a radio-detector. Generally, the radiochemical purity is determined under ambient conditions (e.g., ambient temperature, ambient humidity, ambient light, etc.), such as in samples stored under such conditions.
Stability was assessed using reverse phase HPLC on a C18 column with a phosphate buffer/acetonitrile gradient mobile phase, and the elution profile was monitored using both UV and radiochemical detectors. Samples were analyzed either by direct injection onto the HPLC, dilution and injection or including the addition of tetraethylammonium fluoride (TEAF) into the sample before injection.
Known amounts of free ^18F either alone or spiked with TEAF were injected onto the analytic column and the eluent from the column collected over the course of a chromatogram and assaying the radioactivity using a Capintec. […] Adding TEAF into the analytic samples was incorporated into subsequent studies examining potential radiolysis of [^18F]DCFPyL to overcome some of the limitations of free ^18F quantification.
Analytical HPLC method was used. The method employs UV detection at 264 nm for chemical impurities, and an Eckert & Ziegler model B-FC-1000 gamma detector for radiochemical assays.

[1] = T = 10, 50 mg/mL ascorbic acid pH 5.8, 20% ethanol, 106.5 mCi/mL at EOS
[2] = T = 0.5 hr, 50 mg/mL ascorbic acid pH 5.8 in final product vial, 20% ethanol, 110 mCi/mL at EOS
[3] = T = 0.5 hr, 100 mg/mL ascorbic acid pH 2.0, 256 mCi/mL at EOS
[4] = T = 0.5 hr, 20% ethanol in saline, 52 mCi/mL at EOS
[5] = T = 0.5 hr, 20% ethanol in saline, 65 mCi/mL at EOS
[6] = T = 0.5 hr, 20% ethanol in saline, 85 mCi/mL at EOS
[7] = T = 0.5 hr, control without ascorbic acid, 36% ethanol in saline, 147 mCi/mL at EOS
[8] = T = 1.0 hr, 50 mg/mL ascorbic acid pH 5.8 in final product vial, 20% ethanol, 110 mCi/mL at EOS
[9] = T = 1.0 hr, 100 mg/mL ascorbic acid pH 2.0, 256 mCi/mL at EOS
[10] = T = 1 hr, 20% ethanol in saline, 52 mCi/mL at EOS
[11] = T = 1 hr, 20% ethanol in saline, 65 mCi/mL at EOS
[12] = T = 1 hr, 20% ethanol in saline, 85 mCi/mL at EOS
[13] = T = 1 hr, 100% ethanol, 325 mCi/mL at EOS
[14] = T = 1 hr, control without ascorbic acid, 36% ethanol in saline, 147 mCi/mL at EOS
[15] = T = 1.5 hr (Table 3 prints 1.6 hr), control without ascorbic acid, 36% ethanol in saline, 147 mCi/mL at EOS
[16] = T = 1.5 hr, 50 mg/mL ascorbic acid pH 5.8 in final product vial, 20% ethanol, 110 mCi/mL at EOS
[17] = T = 1.5 hr, 100 mg/mL ascorbic acid pH 2.0, 256 mCi/mL at EOS
[18] = T = 1.5 hr, 20% ethanol in saline, 52 mCi/mL at EOS
[19] = T = 1.5 hr, 20% ethanol in saline, 65 mCi/mL at EOS
[20] = T = 1.5 hr, 20% ethanol in saline, 85 mCi/mL at EOS
[21] = T = 2 hr, 0.5 mg/mL ascorbic acid pH 5.8, 20% ethanol, 105.8 mCi/mL at EOS
[22] = T = 2 hr, 1 mg/mL ascorbic acid pH 5.8, 20% ethanol, 107.0 mCi/mL at EOS
[23] = T = 2 hr, 5 mg/mL ascorbic acid pH 5.8, 20% ethanol, 99.0 mCi/mL at EOS
[24] = T = 2 hr, 20 mg/mL sodium citrate, 20% ethanol, 104.8 mCi/mL at EOS
[25] = T = 2 hr, 50 mg/mL ascorbic acid pH 5.8, 20% ethanol, 139.7 mCi/mL at EOS
[26] = T = 2.0 hr, 50 mg/mL ascorbic acid pH 5.8 in final product vial, 20% ethanol, 110 mCi/mL at EOS
[27] = T = 2.0 hr, 100 mg/mL ascorbic acid pH 2.0, 256 mCi/mL at EOS
[28] = T = 2 hr, 20% ethanol in saline, 52 mCi/mL at EOS
[29] = T = 2 hr, 20% ethanol in saline, 65 mCi/mL at EOS
[30] = T = 2 hr, 20% ethanol in saline, 85 mCi/mL at EOS
[31] = T = 2 hr, 100% ethanol, 325 mCi/mL at EOS
[32] = T = 2 hr, control without ascorbic acid, 36% ethanol in saline, 147 mCi/mL at EOS
[33] = T = 2.5 hr, 50 mg/mL ascorbic acid pH 5.8 in final product vial, 20% ethanol, 110 mCi/mL at EOS

SMILES: O=C(O)CC[C@H](NC(=O)N[C@@H](CCCCNC(=O)c1ccc([18F])nc1)C(=O)O)C(=O)O [Lot 18F-DCFPyL, 2-(3-{1-carboxy-5-[(6-[18F]fluoro-pyridine-3-carbonyl)-amino]-pentyl}ureido)-pentanedioic acid]
- 18F-DCFPyL (% RCP) [1]: 99.43%
- Free F-18 [1]: 0.57%
- 18F-DCFPyL (RCP) [2]: 99.69%
- RT 5.0 radioactive impurity [2]: 0.31%
- 18F-DCFPyL (RCP) [3]: 99.60%
- Free 18F [3]: 0.40%
- 18F-DCFPyL (RCP) [4]: 99.18%
- Free F-18 [4]: 0.36%
- RT 5.0 radioactive impurity [4]: 0.47%
- 18F-DCFPyL (RCP) [5]: 96.43%
- Free F-18 [5]: 3.17%
- RT 5.0 radioactive impurity [5]: 0.39%
- 18F-DCFPyL (RCP) [6]: 96.74%
- Free F-18 [6]: 2.92%
- RT 5.0 radioactive impurity [6]: 0.34%
- 18F-DCFPyL (RCP) [7]: 90.65%
- Free F-18 [7]: 7.73%
- RT 5.0 radioactive impurity [7]: 0.65%
- RT 5.9 radioactive impurity [7]: 0.97%
- 18F-DCFPyL (RCP) [8]: 96.73%
- RT 5.0 radioactive impurity [8]: 0.27%
- 18F-DCFPyL (RCP) [9]: 98.68%
- Free 18F [9]: 0.31%
- RT 5.0 radioactive impurity [9]: 0.35%
- RT 12.0 radioactive impurity [9]: 0.35%
- RT 12.2 radioactive impurity [9]: 0.31%
- 18F-DCFPyL (RCP) [10]: 98.93%
- Free F-18 [10]: 0.56%
- RT 5.0 radioactive impurity [10]: 0.51%
- 18F-DCFPyL (RCP) [11]: 96.15%
- Free F-18 [11]: 3.22%
- RT 5.0 radioactive impurity [11]: 0.36%
- RT 5.9 radioactive impurity [11]: 0.28%
- 18F-DCFPyL (RCP) [12]: 96.64%
- Free F-18 [12]: 2.98%
- RT 5.0 radioactive impurity [12]: 0.38%
- 18F-DCFPyL (RCP) [13]: 96.66%
- Free F-18 [13]: 3.34%
- 18F-DCFPyL (RCP) [14]: 90.71%
- Free F-18 [14]: 7.69%
- RT 5.0 radioactive impurity [14]: 0.48%
- RT 5.9 radioactive impurity [14]: 1.11%
- 18F-DCFPyL (RCP) [15]: 89.59%
- Free F-18 [15]: 8.78%
- RT 5.0 radioactive impurity [15]: 0.61%
- RT 5.9 radioactive impurity [15]: 1.03%
- 18F-DCFPyL (RCP) [16]: 99.61%
- RT 5.0 radioactive impurity [16]: 0.39%
- RT 5.9 radioactive impurity [16]: 0.31%
- 18F-DCFPyL (RCP) [17]: 98.58%
- Free 18F [17]: 0.31%
- RT 5.0 radioactive impurity [17]: 0.28%
- RT 12.0 radioactive impurity [17]: 0.46%
- RT 12.2 radioactive impurity [17]: 0.37%
- 18F-DCFPyL (RCP) [18]: 98.70%
- Free F-18 [18]: 0.80%
- RT 5.0 radioactive impurity [18]: 0.50%
- 18F-DCFPyL (RCP) [19]: 95.78%
- Free F-18 [19]: 3.55%
- RT 5.0 radioactive impurity [19]: 0.38%
- RT 5.9 radioactive impurity [19]: 0.29%
- 18F-DCFPyL (RCP) [20]: 95.06%
- Free F-18 [20]: 4.22%
- RT 5.0 radioactive impurity [20]: 0.41%
- RT 5.9 radioactive impurity [20]: 0.31%
- 18F-DCFPyL (% RCP) [21]: 98.99%
- Free F-18 [21]: 1.01%
- 18F-DCFPyL (% RCP) [22]: 98.88%
- Free F-18 [22]: 1.12%
- Free F-18 (T = 2 hr, 1 mg/mL sodium ascorbate, 20% ethanol, 111.5 mCi/mL at EOS): 1.89%
- 18F-DCFPyL (% RCP) [23]: 99.45%
- Free F-18 [23]: 0.55%
- Free F-18 (T = 2 hr, 5 mg/mL sodium ascorbate, 20% ethanol, 114.6 mCi/mL at EOS): 0.89%
- Free F-18 [24]: 18.24%
- RT 3.4 radioactive impurity [24]: 0.30%
- RT 3.7 radioactive impurity [24]: 0.31%
- 18F-DCFPyL (% RCP) [25]: 100.00%
- Free F-18 [25]: 0.00%
- RT 4.8 radioactive impurity (T = 2 hr, 50 mg/mL ascorbic acid pH 5.8, 20% ethanol, 139.7 mCi/mL at EOS, MPA = 0.25% of main peak): <MPA
- 18F-DCFPyL (RCP) [26]: 99.67%
- RT 5.0 radioactive impurity [26]: 0.33%
- RT 5.9 radioactive impurity [26]: 0.24%
- 18F-DCFPyL (RCP) [27]: 98.35%
- Free 18F [27]: 0.31%
- RT 5.0 radioactive impurity [27]: 0.35%
- RT 12.0 radioactive impurity [27]: 0.52%
- RT 12.2 radioactive impurity [27]: 0.47%
- 18F-DCFPyL (RCP) [28]: 98.62%
- Free F-18 [28]: 0.91%
- RT 5.0 radioactive impurity [28]: 0.47%
- 18F-DCFPyL (RCP) [29]: 95.91%
- Free F-18 [29]: 3.78%
- RT 5.0 radioactive impurity [29]: 0.31%
- 18F-DCFPyL (RCP) [30]: 95.37%
- Free F-18 [30]: 4.00%
- RT 5.0 radioactive impurity [30]: 0.39%
- RT 5.9 radioactive impurity [30]: 0.24%
- 18F-DCFPyL (RCP) [31]: 96.38%
- Free F-18 [31]: 3.62%
- 18F-DCFPyL (RCP) [32]: 89.50%
- Free F-18 [32]: 8.67%
- RT 5.0 radioactive impurity [32]: 0.77%
- RT 5.9 radioactive impurity [32]: 1.05%
- 18F-DCFPyL (RCP) [33]: 99.63%
- RT 5.0 radioactive impurity [33]: 0.37%
- RT 5.9 radioactive impurity [33]: 0.35%
